{"source": "patent US20250090558A1", "about": "“APPLICATION OF M[…] PROMOTING BONE FORMATION AND PREVENTING-TREATING OSTEOPOROSIS” (The First Affiliated Hospital of Zhejiang Chinese Medical …, priority 2023, published 2025)", "key": {"[1]": {"test_system": "Ppm1a knockout (Ppm1a−/−) mice with bone defect", "assay_type": "in vivo, mouse"}, "[2]": {"test_system": "livers, hearts, kidneys, and spleens of OVX model mice", "assay": "biosafety evaluation, HE staining of organs in OVX model mice", "assay_type": "in vivo, mouse", "conditions": "low-dose and high-dose, 8 weeks of intervention", "source_text": "The livers, hearts, kidneys, and spleens of the mice in the OVX model post-intervention with miltefosine for 8 weeks are collected, and the tissue morphology of these organs is observed through hematoxylin and eosin (HE) staining."}, "[3]": {"test_system": "osteoblasts", "assay": "alkaline phosphatase staining, osteogenic differentiation of osteoblasts", "assay_type": "cell-based, mouse", "conditions": "in vitro; 2.5 μM, 5.0 μM, 10 μM"}, "[4]": {"test_system": "primary osteoblasts", "assay": "RT-qPCR of osteogenic genes Sp7, Bglap, Alpl in primary osteoblasts", "conditions": "RT-PCR", "method": "After euthanizing 3-5-day-old mouse with CO2, the euthanized mouse is soaked in 70% alcohol for disinfection for 15 minutes. The disinfected mouse is then carefully skinned from a top of the skull, and the skull tissue blocks are placed in an a-modified eagle medium (α-MEM) digestion culture medium containing 1 mg/mL collagenase-A and 1% penicillin/streptomycin. The skull tissue blocks are digested at 37° C. for 6 hours, with the cell tissue blocks being pipetted and blown every hour. After the digestion of the tissue blocks is complete to obtain a mixture, the mixture is filtered through a 70-μm cell strainer, centrifuged at 1000 revolutions per minute (rpm) for 5 minutes, and then resuspended in α-MEM culture medium to obtain mixed cells. The mixed cells are inoculated in a well plate to obtain osteoblasts, and the osteoblasts are cultured in complete α-MEM medium containing 10% fetal bovine serum. When a cell adhesion convergence degree of the osteoblasts reaches 60-70%, the osteoblasts are induced for osteogenic differentiation with an osteogenic culture medium containing ascorbic acid (50 g/mL) and β-glycerophosphate (10 millimoles per liter abbreviated as mM) for 7 days before the cells are collected for the next step of the experiment.\n1.1.7 Extraction of Messenger Ribonucleic Acid (mRNA) of Cells and Detection of Reverse Transcription Quantitative Polymerase Chain Reaction (RT-qPCR)\nTRIzol reagent (i.e., TRI reagent®) is used to harvest and extract total RNA from the osteoblast cultures. The mRNA is then reverse transcribed into complementary deoxyribonucleic acid (DNA) using the TaqMan reverse transcription kit (Biomake). After that, a real-time quantitative polymerase chain reaction (RT-qPCR) is conducted with the SYBR Premix Ex Taq™ II."}, "[5]": {"test_system": "OVX model mice", "assay": "ovariectomy (OVX) model mouse, estrogen-deficient osteoporosis", "assay_type": "in vivo", "conditions": "for number of TRAP-positive cells: distal femur sections"}, "[6]": {"test_system": "mouse model with femoral distal bone defect", "assay": "bone defect repair in mouse model with femoral distal bone defect", "assay_type": "in vivo"}, "[7]": {"test_system": "primary osteoblasts", "assay": "cell counting kit-8 (CCK-8) assay, viability of primary osteoblasts", "assay_type": "cell-based, mouse"}, "[8]": {"conditions": "8 weeks post-OVX, vs control group"}, "[9]": {"conditions": "CT analysis, one week after operation"}}}
{"smiles": "CCCCCCCCCCCCCCCCOP([O])(=O)OCC[N+](C)(C)C", "note": "(stereo not drawn) [miltefosine, hexadecylphosphocholine]", "values": [{"measurement": "osteogenic effects in bone defect repair (Micro-CT)", "setting": "[1]", "value": "could not exert the above osteogenic effects"}, {"measurement": "tissue morphology of livers, hearts, kidneys, and spleens (HE staining)", "setting": "[2]", "value": "no obvious lesions or pathological changes"}, {"measurement": "osteogenic differentiation capacity of osteoblasts (alkaline phosphatase staining)", "setting": "[3]", "value": "significantly enhance"}, {"measurement": "expression of osteogenic gene Alpl (mRNA)", "setting": "[4]", "value": "upregulate"}, {"measurement": "expression of osteogenic gene Bglap (mRNA)", "setting": "[4]", "value": "upregulate"}, {"measurement": "expression of osteogenic gene Sp7 (mRNA)", "setting": "[4]", "value": "upregulate"}, {"measurement": "BMD at the distal femur", "setting": "[5]; 8 weeks post-OVX", "value": "significantly increase"}, {"measurement": "Conn.Dn", "setting": "[5]; 8 weeks post-OVX", "value": "improve"}, {"measurement": "SMI of the bone tissue", "setting": "[5]; 8 weeks post-OVX", "value": "improve"}, {"measurement": "bone loss at the distal femur (histomorphometric analysis, ABH/OG, trabecular bone area fraction)", "setting": "[5]; 8 weeks post-OVX", "value": "reduce bone loss"}, {"measurement": "number of osteoblasts on the trabecular bone surface", "setting": "[5]; 8 weeks post-OVX", "value": "increase"}, {"measurement": "BV/TV of trabecular bone", "setting": "[5]; [8]", "value": "significantly increased"}, {"measurement": "Tb.N", "setting": "[5]; [8]", "value": "significantly increased"}, {"measurement": "Tb.Sp", "setting": "[5]; [8]", "value": "markedly reduced"}, {"measurement": "Tb.Th", "setting": "[5]; [8]", "value": "significantly increased"}, {"measurement": "expression level of mature osteoclast marker cathepsin K (CTSK)", "setting": "[5]; control group vs treated groups", "value": "no significant difference"}, {"measurement": "bone formation by ALP immunohistochemical staining", "setting": "[5]; distal femur, 8 weeks post-OVX", "value": "significantly promote the bone formation"}, {"measurement": "bone formation by immunofluorescence staining for OCN", "setting": "[5]; distal femur, 8 weeks post-OVX", "value": "significantly promote the bone formation"}, {"measurement": "formation of adipocytes (Fabp4 immunohistochemical staining)", "setting": "[5]; distal femur, 8 weeks post-OVX", "value": "no obvious effect"}, {"measurement": "number of TRAP-positive cells", "setting": "[5]; high-dose", "value": "slightly reduces"}, {"measurement": "bone loss at the distal metaphysis of the femur (micro-CT)", "setting": "[5]; low-dose and high-dose groups, 8 weeks post-OVX", "value": "significantly less"}, {"measurement": "number of TRAP-positive cells", "setting": "[5]; low-dose", "value": "does not affect"}, {"measurement": "BMD in the bone defect repair area", "setting": "[6]; [9]", "value": "increase"}, {"measurement": "BV/TV in the bone defect repair area", "setting": "[6]; [9]", "value": "increase"}, {"measurement": "trabecular number (Tb.N) in the bone defect repair area", "setting": "[6]; [9]", "value": "increase"}, {"measurement": "expression level of osteocalcin (OCN) in the bone defect repair area", "setting": "[6]; immunohistochemistry, vs control group", "value": "significantly increased"}, {"measurement": "bone repair (μ-CT scans of femur)", "setting": "[6]; one week after model creation", "value": "effectively accelerate bone repair"}, {"measurement": "area of new bone in the bone defect area (SO/FG staining)", "setting": "[6]; vs control (vehicle) group, one week after operation", "value": "significantly larger"}, {"measurement": "effect on the viability of the primary osteoblasts", "setting": "[7]; 0.5 μM to 20 μM in vitro", "value": "no significant effect"}, {"measurement": "cell death of the primary osteoblasts", "setting": "[7]; 50 μM", "value": "approximately 50%"}]}
